Results from ChEMBL document CHEMBL5291721, “A preclinical secondary pharmacology resource illuminates target-adverse drug reaction associations of marketed drugs” (Nat Commun, 2023).

How the values were obtained:
[1] = molecular target: Hydroxycarboxylic acid receptor 2 (Homo sapiens, UniProt Q8TDS4)
[2] = molecular target: T1, Corticotropin-releasing factor receptor 2 (Homo sapiens, UniProt Q13324)
T1 sequence (Q13324 whole entry): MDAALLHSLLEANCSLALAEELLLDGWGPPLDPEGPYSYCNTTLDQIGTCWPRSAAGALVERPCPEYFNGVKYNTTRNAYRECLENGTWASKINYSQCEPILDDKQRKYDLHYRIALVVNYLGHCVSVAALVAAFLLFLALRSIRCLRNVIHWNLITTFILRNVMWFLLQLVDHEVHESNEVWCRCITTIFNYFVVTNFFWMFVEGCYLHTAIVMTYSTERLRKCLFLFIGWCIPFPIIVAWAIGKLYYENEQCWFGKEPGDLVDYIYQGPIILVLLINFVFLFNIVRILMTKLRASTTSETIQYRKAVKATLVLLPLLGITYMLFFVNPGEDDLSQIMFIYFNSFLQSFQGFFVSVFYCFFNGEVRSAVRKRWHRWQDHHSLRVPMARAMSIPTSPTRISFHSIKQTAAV

[3] = molecular target: 5-hydroxytryptamine receptor 7 (Homo sapiens, UniProt P34969)
[4] = molecular target: T2, Type-2 angiotensin II receptor (Homo sapiens, UniProt P50052); format: functional
T2 sequence (P50052 whole entry): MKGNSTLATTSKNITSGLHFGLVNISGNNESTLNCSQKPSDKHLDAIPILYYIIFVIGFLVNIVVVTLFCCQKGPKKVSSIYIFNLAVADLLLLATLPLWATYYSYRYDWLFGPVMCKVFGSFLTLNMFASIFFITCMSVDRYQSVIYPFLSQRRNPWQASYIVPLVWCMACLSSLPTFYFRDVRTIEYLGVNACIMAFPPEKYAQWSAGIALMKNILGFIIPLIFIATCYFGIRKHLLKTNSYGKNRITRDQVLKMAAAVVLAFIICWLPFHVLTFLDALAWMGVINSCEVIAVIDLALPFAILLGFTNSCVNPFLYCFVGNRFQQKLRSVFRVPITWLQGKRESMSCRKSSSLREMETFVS

Histamine H1 receptor = Histamine H1 receptor (Homo sapiens, UniProt P35367); format: functional, cell-based
[5] = molecular target: T3, Peroxisome proliferator-activated receptor gamma (Homo sapiens, UniProt P37231); format: functional
T3 sequence (P37231 whole entry): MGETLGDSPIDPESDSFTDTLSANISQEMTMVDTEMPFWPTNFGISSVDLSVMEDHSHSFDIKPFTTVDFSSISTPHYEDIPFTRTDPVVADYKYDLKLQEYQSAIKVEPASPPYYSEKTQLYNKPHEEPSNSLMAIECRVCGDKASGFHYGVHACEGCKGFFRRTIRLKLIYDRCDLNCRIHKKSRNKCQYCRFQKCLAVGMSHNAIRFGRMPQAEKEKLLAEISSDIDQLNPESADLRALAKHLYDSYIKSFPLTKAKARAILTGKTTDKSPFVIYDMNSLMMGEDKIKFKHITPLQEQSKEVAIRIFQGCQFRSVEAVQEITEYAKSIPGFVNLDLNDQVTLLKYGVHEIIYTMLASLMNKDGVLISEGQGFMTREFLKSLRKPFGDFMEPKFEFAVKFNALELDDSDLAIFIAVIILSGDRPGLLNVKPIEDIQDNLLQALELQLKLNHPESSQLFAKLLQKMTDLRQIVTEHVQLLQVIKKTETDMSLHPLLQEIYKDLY

[6] = molecular target: Beta-1 adrenergic receptor (Homo sapiens, UniProt P08588); format: functional, cell-based
[7] = molecular target: T4, Prostaglandin G/H synthase 1 (Rattus norvegicus, UniProt Q63921); format: functional
T4 sequence (Q63921 whole entry): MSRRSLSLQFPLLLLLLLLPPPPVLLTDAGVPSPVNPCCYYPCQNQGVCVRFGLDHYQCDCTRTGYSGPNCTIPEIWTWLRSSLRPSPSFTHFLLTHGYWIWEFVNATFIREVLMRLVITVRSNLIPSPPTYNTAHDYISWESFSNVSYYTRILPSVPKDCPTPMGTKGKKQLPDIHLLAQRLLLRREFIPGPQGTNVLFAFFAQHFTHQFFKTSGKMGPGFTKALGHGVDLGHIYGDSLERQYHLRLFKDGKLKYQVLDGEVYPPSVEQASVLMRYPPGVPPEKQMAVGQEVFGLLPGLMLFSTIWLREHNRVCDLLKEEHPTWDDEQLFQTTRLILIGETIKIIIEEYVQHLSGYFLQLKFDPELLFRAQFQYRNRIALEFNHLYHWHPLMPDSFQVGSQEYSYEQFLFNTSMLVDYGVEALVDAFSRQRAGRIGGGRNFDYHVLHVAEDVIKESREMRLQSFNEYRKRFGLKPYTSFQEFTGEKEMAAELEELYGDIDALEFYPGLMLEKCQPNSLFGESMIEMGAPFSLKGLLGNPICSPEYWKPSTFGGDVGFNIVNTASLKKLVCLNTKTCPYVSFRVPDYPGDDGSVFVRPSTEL

[8] = molecular target: 5-hydroxytryptamine receptor 5A (Homo sapiens, UniProt P47898)
D(1B) dopamine receptor = D(1B) dopamine receptor (Homo sapiens, UniProt P21918)
[9] = molecular target: Rod cGMP-specific 3',5'-cyclic phosphodiesterase subunit alpha (Homo sapiens, UniProt P16499); format: functional
[10] = molecular target: Synaptic vesicular amine transporter (Rattus norvegicus, UniProt Q01827); format: functional
[11] = molecular target: Voltage-dependent L-type calcium channel subunit alpha-1C (Homo sapiens, UniProt Q13936); format: functional, cell-based
D(1A) dopamine receptor = D(1A) dopamine receptor (Homo sapiens, UniProt P21728); format: functional, cell-based
Thromboxane A2 receptor = molecular target: T5, Thromboxane A2 receptor (Homo sapiens, UniProt P21731); format: functional
T5 sequence (P21731 whole entry): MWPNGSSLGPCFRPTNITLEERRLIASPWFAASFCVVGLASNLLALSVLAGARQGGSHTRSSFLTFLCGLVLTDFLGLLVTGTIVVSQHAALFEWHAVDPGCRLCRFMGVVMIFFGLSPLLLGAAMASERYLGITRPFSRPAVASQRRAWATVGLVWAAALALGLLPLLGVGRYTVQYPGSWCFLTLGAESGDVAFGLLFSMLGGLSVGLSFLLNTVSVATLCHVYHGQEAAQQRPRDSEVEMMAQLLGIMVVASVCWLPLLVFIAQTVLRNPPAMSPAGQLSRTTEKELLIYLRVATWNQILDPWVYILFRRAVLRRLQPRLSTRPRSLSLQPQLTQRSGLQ
Note: assay procedure not described here.

5-hydroxytryptamine receptor 7, sequence (P34969 whole entry): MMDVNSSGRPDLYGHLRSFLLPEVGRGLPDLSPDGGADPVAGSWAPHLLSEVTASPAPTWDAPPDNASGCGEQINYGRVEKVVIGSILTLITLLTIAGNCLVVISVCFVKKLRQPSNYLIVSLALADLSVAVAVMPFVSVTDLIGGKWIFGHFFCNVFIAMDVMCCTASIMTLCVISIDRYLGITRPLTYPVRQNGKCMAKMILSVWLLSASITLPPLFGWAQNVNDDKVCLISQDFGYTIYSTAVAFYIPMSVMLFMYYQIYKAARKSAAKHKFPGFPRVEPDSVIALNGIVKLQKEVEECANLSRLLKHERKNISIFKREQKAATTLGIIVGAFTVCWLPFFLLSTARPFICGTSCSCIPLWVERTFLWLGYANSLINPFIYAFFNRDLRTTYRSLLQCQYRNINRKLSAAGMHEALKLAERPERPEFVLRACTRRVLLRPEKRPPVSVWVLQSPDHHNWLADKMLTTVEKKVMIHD
Beta-1 adrenergic receptor, sequence (P08588 whole entry): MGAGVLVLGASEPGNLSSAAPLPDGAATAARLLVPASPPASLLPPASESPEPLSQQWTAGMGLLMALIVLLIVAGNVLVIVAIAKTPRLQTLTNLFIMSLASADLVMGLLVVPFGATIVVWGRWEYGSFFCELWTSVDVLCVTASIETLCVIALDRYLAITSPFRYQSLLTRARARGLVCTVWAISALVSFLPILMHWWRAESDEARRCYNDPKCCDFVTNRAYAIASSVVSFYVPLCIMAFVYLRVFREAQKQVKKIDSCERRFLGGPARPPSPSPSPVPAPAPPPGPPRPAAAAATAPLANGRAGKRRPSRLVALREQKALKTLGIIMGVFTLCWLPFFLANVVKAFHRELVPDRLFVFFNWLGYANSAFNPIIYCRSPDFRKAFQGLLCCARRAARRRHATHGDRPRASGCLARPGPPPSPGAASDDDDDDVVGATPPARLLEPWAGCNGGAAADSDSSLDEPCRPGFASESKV
Histamine H1 receptor, sequence (P35367 whole entry): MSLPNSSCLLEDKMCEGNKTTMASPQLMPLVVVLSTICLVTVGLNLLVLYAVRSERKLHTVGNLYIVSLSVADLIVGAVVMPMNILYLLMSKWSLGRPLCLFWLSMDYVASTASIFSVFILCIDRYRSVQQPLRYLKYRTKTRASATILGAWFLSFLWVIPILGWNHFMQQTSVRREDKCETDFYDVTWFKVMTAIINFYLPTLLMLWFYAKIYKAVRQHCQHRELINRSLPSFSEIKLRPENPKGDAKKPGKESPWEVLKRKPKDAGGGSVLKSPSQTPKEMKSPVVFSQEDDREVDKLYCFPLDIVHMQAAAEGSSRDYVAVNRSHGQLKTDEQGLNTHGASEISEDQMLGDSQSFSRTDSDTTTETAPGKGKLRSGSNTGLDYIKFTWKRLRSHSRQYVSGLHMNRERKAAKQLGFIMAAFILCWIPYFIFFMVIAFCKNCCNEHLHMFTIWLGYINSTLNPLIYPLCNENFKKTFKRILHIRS
D(1B) dopamine receptor, sequence (P21918 whole entry): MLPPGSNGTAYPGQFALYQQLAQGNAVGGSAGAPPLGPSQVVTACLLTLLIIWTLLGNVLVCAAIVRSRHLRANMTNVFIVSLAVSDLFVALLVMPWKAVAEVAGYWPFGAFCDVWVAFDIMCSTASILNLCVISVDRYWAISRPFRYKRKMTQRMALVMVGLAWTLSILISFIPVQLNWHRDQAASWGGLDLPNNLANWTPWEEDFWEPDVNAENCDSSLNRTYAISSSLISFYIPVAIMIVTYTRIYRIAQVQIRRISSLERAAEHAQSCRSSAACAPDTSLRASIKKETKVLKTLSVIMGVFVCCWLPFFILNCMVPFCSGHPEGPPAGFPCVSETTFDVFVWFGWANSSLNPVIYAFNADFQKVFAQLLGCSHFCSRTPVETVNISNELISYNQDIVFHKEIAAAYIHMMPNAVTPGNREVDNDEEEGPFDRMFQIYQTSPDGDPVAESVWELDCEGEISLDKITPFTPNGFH
Hydroxycarboxylic acid receptor 2, sequence (Q8TDS4 whole entry): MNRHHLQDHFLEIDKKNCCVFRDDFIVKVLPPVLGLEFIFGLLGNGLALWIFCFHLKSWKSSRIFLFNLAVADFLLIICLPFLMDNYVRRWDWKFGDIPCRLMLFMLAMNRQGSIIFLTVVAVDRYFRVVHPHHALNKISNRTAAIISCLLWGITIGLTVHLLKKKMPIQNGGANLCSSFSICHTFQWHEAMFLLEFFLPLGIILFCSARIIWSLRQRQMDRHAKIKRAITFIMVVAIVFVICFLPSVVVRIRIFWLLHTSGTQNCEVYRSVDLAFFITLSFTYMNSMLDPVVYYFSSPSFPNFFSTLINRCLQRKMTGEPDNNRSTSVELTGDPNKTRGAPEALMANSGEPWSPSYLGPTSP
Synaptic vesicular amine transporter, sequence (Q01827 whole entry): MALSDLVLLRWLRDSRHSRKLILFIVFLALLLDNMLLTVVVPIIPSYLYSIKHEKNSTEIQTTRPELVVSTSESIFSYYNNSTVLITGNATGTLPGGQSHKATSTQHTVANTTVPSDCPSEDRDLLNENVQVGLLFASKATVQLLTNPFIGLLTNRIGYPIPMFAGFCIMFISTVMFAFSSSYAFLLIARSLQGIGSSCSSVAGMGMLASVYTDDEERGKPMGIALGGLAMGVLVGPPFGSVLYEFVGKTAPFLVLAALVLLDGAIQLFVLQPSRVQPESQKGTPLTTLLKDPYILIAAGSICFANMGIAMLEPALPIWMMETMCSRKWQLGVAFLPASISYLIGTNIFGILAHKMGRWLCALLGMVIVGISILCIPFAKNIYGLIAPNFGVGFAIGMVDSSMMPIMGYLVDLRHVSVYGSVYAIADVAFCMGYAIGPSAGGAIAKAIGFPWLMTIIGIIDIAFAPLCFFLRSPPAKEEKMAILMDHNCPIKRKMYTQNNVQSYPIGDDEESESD
D(1A) dopamine receptor, sequence (P21728 whole entry): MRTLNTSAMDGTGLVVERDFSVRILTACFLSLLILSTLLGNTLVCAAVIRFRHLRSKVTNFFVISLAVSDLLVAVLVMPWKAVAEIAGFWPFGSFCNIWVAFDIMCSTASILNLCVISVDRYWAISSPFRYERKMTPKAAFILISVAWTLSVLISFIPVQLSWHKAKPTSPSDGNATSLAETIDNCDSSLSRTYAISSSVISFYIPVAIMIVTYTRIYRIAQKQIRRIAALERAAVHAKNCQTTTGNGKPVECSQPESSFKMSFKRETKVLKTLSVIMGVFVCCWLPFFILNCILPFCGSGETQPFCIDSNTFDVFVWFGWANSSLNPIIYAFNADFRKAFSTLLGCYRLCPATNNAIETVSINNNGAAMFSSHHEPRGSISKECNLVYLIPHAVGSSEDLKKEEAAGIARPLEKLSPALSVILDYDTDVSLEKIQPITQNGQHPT
5-hydroxytryptamine receptor 5A, sequence (P47898 whole entry): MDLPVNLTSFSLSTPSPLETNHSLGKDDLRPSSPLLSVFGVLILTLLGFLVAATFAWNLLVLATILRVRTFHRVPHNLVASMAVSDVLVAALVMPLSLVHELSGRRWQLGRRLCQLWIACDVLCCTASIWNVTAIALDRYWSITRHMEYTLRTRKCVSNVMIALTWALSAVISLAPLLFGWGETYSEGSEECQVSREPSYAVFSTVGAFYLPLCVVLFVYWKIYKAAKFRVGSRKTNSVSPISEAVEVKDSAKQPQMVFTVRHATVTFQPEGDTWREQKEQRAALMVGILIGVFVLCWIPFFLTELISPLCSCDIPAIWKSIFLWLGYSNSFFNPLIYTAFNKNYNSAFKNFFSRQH
Rod cGMP-specific 3',5'-cyclic phosphodiesterase subunit alpha, sequence (P16499 whole entry): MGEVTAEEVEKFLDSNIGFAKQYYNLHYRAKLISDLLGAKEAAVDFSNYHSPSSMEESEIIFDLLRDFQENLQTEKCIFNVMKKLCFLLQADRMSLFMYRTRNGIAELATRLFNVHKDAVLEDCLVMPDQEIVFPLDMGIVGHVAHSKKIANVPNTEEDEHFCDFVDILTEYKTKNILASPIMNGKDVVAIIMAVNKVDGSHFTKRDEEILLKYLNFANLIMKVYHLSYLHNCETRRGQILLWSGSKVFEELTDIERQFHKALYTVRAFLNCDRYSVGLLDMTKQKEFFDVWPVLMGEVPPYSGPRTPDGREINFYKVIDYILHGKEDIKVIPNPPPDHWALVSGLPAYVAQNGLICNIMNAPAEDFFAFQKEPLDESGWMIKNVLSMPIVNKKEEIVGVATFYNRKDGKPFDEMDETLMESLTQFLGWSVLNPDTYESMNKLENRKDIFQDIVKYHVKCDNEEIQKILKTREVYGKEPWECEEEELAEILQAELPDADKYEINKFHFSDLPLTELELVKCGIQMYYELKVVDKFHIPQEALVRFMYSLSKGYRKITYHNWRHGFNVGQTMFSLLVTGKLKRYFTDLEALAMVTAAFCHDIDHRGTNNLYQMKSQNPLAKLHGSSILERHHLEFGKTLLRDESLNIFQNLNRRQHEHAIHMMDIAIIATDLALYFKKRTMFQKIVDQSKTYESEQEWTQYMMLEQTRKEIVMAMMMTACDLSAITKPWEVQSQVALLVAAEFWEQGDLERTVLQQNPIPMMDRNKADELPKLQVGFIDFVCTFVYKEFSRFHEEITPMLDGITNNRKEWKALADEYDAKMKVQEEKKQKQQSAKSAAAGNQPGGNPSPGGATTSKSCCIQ

## O=C(O)COCCN1CCN(C(c2ccccc2)c2ccc(Cl)cc2)CC1 (stereo not given) [CETIRIZINE]
[1]
  AC50: > 10 µM
[2]
  AC50: > 30 µM

## C[C@@H]1C[C@H]2[C@@H]3C[C@H](F)C4=CC(=O)C=C[C@]4(C)[C@@]3(F)[C@@H](O)C[C@]2(C)[C@@]1(OC(=O)c1ccco1)C(=O)SCF [FLUTICASONE FUROATE]
[3]
  AC50: > 10 µM

## O=C(O)c1cccnc1Nc1cccc(C(F)(F)F)c1 [NIFLUMIC ACID]
[4]
  AC50: > 100 µM

## OC[C@H]1O[C@@H](n2cnc3c2NC=NC[C@H]3O)C[C@@H]1O [PENTOSTATIN]
Histamine H1 receptor
  AC50: > 30 µM
[5]
  AC50: > 30 µM

## CCCN1CC(NS(=O)(=O)N(CC)CC)CC2Cc3c(O)cccc3CC21 (stereo not given) [QUINAGOLIDE]
[6]
  AC50: > 30 µM

## COC(=O)C1=C(C)NC(C)=C(C(=O)OCCN2CCN(C(c3ccccc3)c3ccccc3)CC2)C1c1cccc([N+](=O)[O-])c1 (stereo not given) [MANIDIPINE 6300]
[6]
  AC50: > 30 µM

## CN(C)C/C=C/C(=O)Nc1cc2c(Nc3ccc(F)c(Cl)c3)ncnc2cc1O[C@H]1CCOC1 [AFATINIB]
Histamine H1 receptor
  AC50: > 30 µM
[5]
  AC50: > 30 µM

## CC(O)(CS(=O)(=O)c1ccc(F)cc1)C(=O)Nc1ccc(C#N)c(C(F)(F)F)c1 (stereo not given) [BICALUTAMIDE]
[7]
  AC50: > 30 µM
[2]
  AC50: > 30 µM
[3]
  AC50: > 10 µM

## CC(C)(Oc1ccc(CCNC(=O)c2ccc(Cl)cc2)cc1)C(=O)O [BEZAFIBRATE]
[5]
  AC50: > 30 µM

## CN[C@@H](C)[C@@H](O)c1ccccc1 [PSEUDOEPHEDRINE]
[1]
  AC50: > 10 µM
[2]
  AC50: > 30 µM

## C[N+](C)(C)CCOP(=O)([O-])OC[C@H](O)CO
[6]
  AC50: > 30 µM

## CN(C)CCCN1c2ccccc2CCc2ccccc21 [IMIPRAMINE]
[4]
  AC50: > 100 µM
[2]
  AC50: > 30 µM
[8]
  AC50: 2.26 µM
[3]
  AC50: > 10 µM
D(1B) dopamine receptor
  AC50: 8.33 µM
[9]
  AC50: > 10 µM
[10]
  AC50: 11.4 µM

## CN(Cc1cnc2nc(N)nc(N)c2n1)c1ccc(C(=O)N[C@@H](CCC(=O)O)C(=O)O)cc1 [METHOTREXATE]
[2]
  AC50: > 30 µM

## CC(=O)O[C@]1(C(C)=O)CC[C@H]2[C@@H]3C=C(Cl)C4=CC(=O)[C@@H]5C[C@@H]5[C@]4(C)[C@H]3CC[C@@]21C [CYPROTERONE ACETATE]
[7]
  AC50: > 30 µM

## Cc1cccc(C)c1NC(=O)CC12CCCN1CCC2 [PILSICAINIDE]
[11]
  AC50: > 50 µM

## O=S1(=O)CCN(CN2CCS(=O)(=O)NC2)CN1 [TAUROLIDINE]
Histamine H1 receptor
  AC50: > 30 µM

## O=C(/C=C/c1cccc(S(=O)(=O)Nc2ccccc2)c1)NO [BELINOSTAT]
[8]
  AC50: > 10 µM
[3]
  AC50: > 10 µM
D(1B) dopamine receptor
  AC50: > 10 µM
[9]
  AC50: > 10 µM

## CC(C)c1cccc(C(C)C)c1O [PROPOFOL]
D(1A) dopamine receptor
  AC50: > 30 µM
Thromboxane A2 receptor
  AC50: > 30 µM
[5]
  AC50: > 30 µM

## CNCCc1ccc(OC(=O)C(C)C)c(OC(=O)C(C)C)c1 [IBOPAMINE]
[6]
  AC50: > 30 µM
D(1A) dopamine receptor
  AC50: > 30 µM

## O=C1OC(OC(=O)c2cccnc2Nc2cccc(C(F)(F)F)c2)c2ccccc21 (stereo not given) [TALNIFLUMATE]
Histamine H1 receptor
  AC50: > 30 µM

## CN[C@]1(c2ccccc2Cl)CCCCC1=O [ESKETAMINE]
[10]
  AC50: > 30 µM

## CN(C)Cc1nnc2n1-c1ccc(Cl)cc1C(c1ccccc1)=NC2 [ADINAZOLAM]
[4]
  AC50: > 100 µM
